Reference: patent US6486310B1, “Gene encoding the rat dopamine D4 receptor” (Washington University, priority 1993, dated 2002)
Read-outs that look alike come from different tables or passages of the source.

Assays:
[1] = test system: D4 transfected MN9D cells; assay: Neurite morphology of D4 transfected MN9D cells; details: 1 μM eticlopride co-cultured with 2 μM quinpirole
[2] = test system: D2A444 transfected MN9D cells; assay: Neurite morphology of D2A444 transfected MN9D cells; details: 1 μM eticlopride co-cultured with 2 μM quinpirole
[3] = test system: D3 transfected MN9D cells; assay: Neurite morphology of D3 transfected MN9D cells; details: 1 μM eticlopride co-cultured with 2 μM quinpirole
rat D4 receptor = biological target: T1, rat D4 receptor (Rattus norvegicus, UniProt P30729); assay: biochemical
T1 sequence (P30729 1-387): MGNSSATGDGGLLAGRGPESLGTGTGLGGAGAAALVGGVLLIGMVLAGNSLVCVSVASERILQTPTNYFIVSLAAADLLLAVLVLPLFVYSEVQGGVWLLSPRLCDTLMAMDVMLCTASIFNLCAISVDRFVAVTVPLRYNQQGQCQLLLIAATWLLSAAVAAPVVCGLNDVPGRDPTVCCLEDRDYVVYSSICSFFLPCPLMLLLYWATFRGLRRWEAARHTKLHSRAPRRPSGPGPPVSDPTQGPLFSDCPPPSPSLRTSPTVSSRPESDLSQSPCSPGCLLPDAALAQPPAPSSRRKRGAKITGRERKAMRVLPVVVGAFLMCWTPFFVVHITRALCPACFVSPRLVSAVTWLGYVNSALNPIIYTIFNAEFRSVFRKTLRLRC
Text: FIG. 4 is a pharmacological analysis of transfected rat D2444 and D4 receptors and human D3 receptors in CCL1.3 cells. […] FIG. 4B is a graph of [^3H]-spiperone (%) versus log [(+)butaclamol, M]. […] The rat D4 gene, the rat D2444 cDNA and the human D3 cDNA were inserted into the expression vector pcDNA/neo and transfected into CCL1.3 cells. […] Open circles, D4-expressing cells; closed circles, D2444-expressing cells, triangles, D3-expressing cells. Results are shown as mean±SD of percent of specifically bound [^3H]spiperone remaining for an experiment done in triplicate.
Mouse fibroblasts expressing D2A444 and D4 were grown to 70% confluence and then harvested by scraping. After they had been washed twice in PBS, the cell pellets were resuspended in distilled water and ruptured by homogenization with a Brinkman Polytron, at setting 6 for 10 sec. Nuclei were removed by centrifugation for 5 min at 600 g. Membranes were pelleted by centrifugation for 25 min at 50,000 g. The pellets were resuspended in water and frozen at −70° C. until assayed. For receptor binding assays, samples containing 150 μg of membrane protein were aliquoted into glass test tubes. [^3H]-Spiperone (1 nm) and varying concentrations of competing compounds were added in a final volume of 1 ml and a final buffer of 1.5 Mm CaCl2, 5 mM MgCl2, 5 mM KCl, 120 mM NaCl, 50 mM Tris-HCl, pH 7.4 at 20° C. The tubes were incubated for 15 min at 37° C., and the assays were terminated by addition of 5 ml of ice-cold 50 Mm Tris-HCl buffer (pH 6.9), collected onto glass-fiber filters, and washed twice with the same cold buffer in a modified Brandel cell harvester.
Transfected cells were enriched by expansion in medium containing G418. The rat D2 cDNA and the human D3 cDNA were expressed in the same cell line.

[4] = test system: tyrosine hydroxylase expressing cells from E15 rat mesencephalon; assay: Morphology of tyrosine hydroxylase positive cells in primary E15 mesencephalon cultures; type: cell-based; details: 2 μM quinpirole, 90 hours, high density culture
Text: Cultures were then fixed and dopamine synthesizing cells identified by tyrosine hydroxylase immunoreactivity. […] There are five TH positive cells in the control condition and three TH positive cells in the quinpirole condition.

`CCc1cc(Cl)c(OC)c(C(=O)NC[C@@H]2CCCN2CC)c1O` [eticlopride] was tested, and the “block of the effects of quinpirole stimulation” value (“block” for short) [1] was “can be blocked”, the “block” value [2] was “can be blocked” and the “block” value [3] was “can be blocked”. For the same compound, the Ki (rat D4 receptor; Ki (D4)) was 22.3 ± 1.9 nM and the Ki (rat D4 receptor; apparent Ki, D4 receptor) was 27 ± 2.9 nM.

`CCCN1CCC[C@@H]2Cc3n[nH]cc3C[C@H]21` [quinpirole] was tested, and the “morphology of TH positive cells versus control (in words)” value [4] was “larger, have more branch points and much more extensive growth cone elaboration”.

Work on (+)butaclamol [(+) butaclamal] yielded a Ki (rat D4 receptor; read-out: apparent Ki, D4 receptor, transfected CCL1.3 cells, competition of 1 nM [3H]spiperone, mean±SEM) of 51.3 ± 17.5 nM.
